Measured values taken from PMC10062662, “Quantitative determination of lurbinectedin, its unbound fraction and its metabolites in human plasma utilizing ultra-performance LC–MS/MS” (PLOS ONE, 2023).
Where two headings read alike, the source gives them in different places.

Tests used:
[1] = molecular target: T1, recombinant human AAG and albumin (Homo sapiens, UniProt P02768); assay: Plasma protein binding by RED in artificial plasma (PBS with recombinant human AAG and albumin); assay type: in vitro ADME; settings: without AAG, albumin 40 mg/mL, lurbinectedin 500 ng/mL
T1 construct: purchased Sigma-Aldrich
Excerpt: (§1) RED was considered the best alternative over other methods (e.g., ultrafiltration) to separate lurbinectedin unbound fraction (fu), due to high non-specific binding (NSB) of lurbinectedin leading to adsorption. The RED device consists of a cylinder of dialysis membrane with an 8-kDa molecular weight cut-off held in place by a polytetrafluoroethylene support; the dialysis membrane tube is closed at one end. The RED devices are disposable and used in a reusable polytetrafluoroethylene support plate (holds a maximum of 48 devices). The design of the plate and device allows for PBS to be added in such a way that it can circulate freely around the cylinder of dialysis membrane. In use, spiked plasma (400 μL) is added to the dialysis membrane cylinder part of the RED device, and PBS (600 μL) is added to the other side. The plate, device and volumes used result in a consistent fluid level across both sides of the membrane, preventing mass movement of fluid across the membrane due to hydrostatic pressure.
(§2) Each measurement was performed using three RED devices; the devices were placed in the plate and spiked plasma and PBS were added. The plate was then mixed on an incubating microplate shaker at 100 rpm and 37°C for 8 hours.
(§3) Both the plasma (diluted 1 in 20 with plasma:PBS 1:1, v:v) and PBS (diluted with plasma 1:1, v:v) were assayed in triplicate using the extraction and UPLC-MS/MS method described above. Transfer of the PBS from the incubation plate into an equivalent volume of plasma prior to assay was performed using pipette tips that had been pre-treated with Sigmacote®.
(§4) PPB of lurbinectedin was also studied in artificial plasma (PBS with recombinant human AAG and albumin) at different levels of AAG, albumin and lurbinectedin to estimate the dissociation rate constants for each of these plasma proteins. Several experimental conditions, performed in triplicate, with triplicate analyses, were explored:
(§5) • Condition 1 with lurbinectedin at 500 ng/mL, AAG at 0, 0.25, 0.75, 1, 2 and 4 mg/mL and albumin at 40 mg/mL. • Condition 2 with lurbinectedin at 500 ng/mL, AAG at 1 mg/mL and albumin at 25, 35, 40, 45 and 50 mg/mL. • Condition 3 with lurbinectedin at 50, 75, 100, 250 and 500 ng/mL, AAG at 1 mg/mL and albumin at 40 mg/mL.

[2] = as above; assay type: in vitro ADME; settings: human; for fraction unbound at 8 h, 500 ng/mL: lurbinectedin 500 ng/mL
Excerpt: as §1, §2, §3, §4, §5

[3] = test system: recombinant human AAG and albumin; assay: as above; assay type: in vitro ADME
Excerpt: as §1, §2, §3, §4, §5

[4] = design: method as in PMID 30090974; settings: cited from earlier work; for reduction of total plasma clearance: 443 cancer patients
[5] = Lurbinectedin concentration in treated patient plasma sample (UPLC-MS/MS); assay type: in vivo, human; settings: single treated patient plasma sample of Fig 2
Protocol: The sample extraction was performed by adding 100 μL of the CS, QC or test sample, 50 μL of aqueous IS solution and 50 μL of 1 M ammonium hydroxide to a 300-μL 96-well microtiter plate. This was then mixed and transferred to a 200-mg Isolute SLE+ plate. After 5 minutes of equilibrium, the samples were then eluted from the SLE plate with 1 mL of MTBE into glass inserts and dried under nitrogen. The samples were then reconstituted with 40 μL of acetonitrile:water (1:1, v:v) with 0.1% of formic acid prior to analysis.
The ultra-performance liquid chromatography (UPLC) system was coupled to a triple quadrupole mass spectrometer. The UPLC system was a Acquity system (Waters, Milford, MA, USA) and composed of a binary pump, column oven and cooled auto sampler. The mass spectrometer was a TQD with an electrospray ionization source from Waters.
The analytical column was a BEH C18 (1.7 μm, 50 × 2.1 mm) and was used in conjunction with a pre-column frit (0.2 μm, 2.1 mm) from Waters. The chromatographic separation was performed at 50°C with a flow rate of 0.4 mL/minute utilizing a linear gradient of water (A) and acetonitrile (B), both with 0.1% ammonium hydroxide: 10% to 100% B from 0.00 to 1.00 minute; isocratic at 100% B for 1.50 minute, then returning to initial conditions from 2.50 to 2.51 minutes with a total run time of 3.5 minutes. The samples were kept at 10°C until injection (10 μL). […]

[6] = Non-specific binding in the absence of plasma proteins (RED method development); assay type: physicochemical; settings: RED devices
Excerpt: To counteract the NSB, Sigmacote®-treated pipette tips were used.

[7] = Plasma protein binding by rapid equilibrium dialysis (RED) in K3-EDTA plasma from donors; assay type: in vitro ADME, human; settings: human; for fraction unbound at 8 h, 100 ng/mL: RED 8 hours 37°C; for fraction unbound at 8 h, 100 ng/mL / fraction unbound at 8 h, 500 ng/mL: read-out: mean percent unbound
Excerpt: as §1, §2, §3
In vitro PPB experiments to determine lurbinectedin fu were conducted with RED in K3-EDTA plasma from donors. Fresh plasma (not previously frozen), previously frozen plasma (fresh plasma subjected to four cycles of freeze [at -80°C ±10°C for ≥12 hours] then thawed [at room temperature for 2 hours]) and diluted fresh plasma (not previously frozen, diluted 1:1 with PBS prior to incubation) were spiked to 100 ng/mL with lurbinectedin and then equilibrated with PBS in RED devices for 8 hours at 37°C and assayed.
In addition, the stability of lurbinectedin PPB in fresh plasma following storage at -80°C ±10°C was evaluated; aliquots of fresh plasma samples (not previously frozen) from three donors were spiked with 500 ng/mL of lurbinectedin. The samples were stored for at least 21, 30, 62 and 91 days prior to analysis; the day 0 aliquots were not frozen before analysis. The spiked aliquots from the three donors were equilibrated with PBS in RED devices in triplicate. The samples generated in the RED devices were analyzed in triplicate.

T1 sequence (P02768 25-609): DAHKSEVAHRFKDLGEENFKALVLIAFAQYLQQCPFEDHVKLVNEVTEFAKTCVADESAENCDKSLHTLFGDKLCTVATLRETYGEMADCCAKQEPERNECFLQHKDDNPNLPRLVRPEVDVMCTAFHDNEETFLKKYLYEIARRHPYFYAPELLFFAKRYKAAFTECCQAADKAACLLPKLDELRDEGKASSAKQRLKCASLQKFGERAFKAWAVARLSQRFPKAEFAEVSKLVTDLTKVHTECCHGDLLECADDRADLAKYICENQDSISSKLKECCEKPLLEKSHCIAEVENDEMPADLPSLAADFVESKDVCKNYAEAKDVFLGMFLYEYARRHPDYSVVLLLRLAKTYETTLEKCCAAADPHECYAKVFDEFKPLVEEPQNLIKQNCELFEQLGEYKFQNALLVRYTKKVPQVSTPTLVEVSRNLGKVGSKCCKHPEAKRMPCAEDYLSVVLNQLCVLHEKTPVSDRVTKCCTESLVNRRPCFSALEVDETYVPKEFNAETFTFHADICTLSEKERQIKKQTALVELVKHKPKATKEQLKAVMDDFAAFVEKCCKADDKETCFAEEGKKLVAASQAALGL

With `COc1ccc2[nH]c3c(c2c1)CCN[C@]31CS[C@@H]2c3c(OC(C)=O)c(C)c4c(c3[C@H](COC1=O)N1[C@@H]2[C@H]2c3c(cc(C)c(OC)c3O)C[C@@H]([C@@H]1O)N2C)OCO4` [Lurbinectedin] the fraction unbound at 8 h, 500 ng/mL ([1]; human, read-out: mean percent unbound) was 0.0895, the percent bound [1] was 91.1% and the fraction unbound at 8 h, 500 ng/mL ([2]; AAG 0.25 mg/mL, albumin 40 mg/mL, read-out: mean percent unbound) was 0.0168. The fraction unbound at 8 h, 500 ng/mL ([2]; AAG 0.75 mg/mL, albumin 40 mg/mL, read-out: mean percent unbound) was 0.00604, the fraction unbound at 8 h, 500 ng/mL ([2]; AAG 1 mg/mL, albumin 40 mg/mL, read-out: mean percent unbound) was 0.00473 and the fraction unbound at 8 h, 500 ng/mL ([2]; AAG 2 mg/mL, albumin 40 mg/mL, read-out: mean percent unbound) was 0.00259. The fraction unbound at 8 h, 500 ng/mL ([2]; AAG 4 mg/mL, albumin 40 mg/mL, read-out: mean percent unbound) was 0.00101, the fraction unbound at 8 h, 500 ng/mL ([2]; condition 2: varying albumin 25-50 mg/mL, AAG 1 mg/mL, read-out: fu (percent unbound)) was 0.00404 and the fraction unbound at 8 h ([2]; condition 3: varying lurbinectedin 50-500 ng/mL, AAG 1 mg/mL, albumin 40 mg/mL, read-out: fu (percent unbound)) was 0.00393. It also gave a percent bound ([3]; AAG 0.25 mg/mL, albumin 40 mg/mL, lurbinectedin 500 ng/mL) of 98.3%, a percent bound ([3]; AAG 0.75 mg/mL, albumin 40 mg/mL, lurbinectedin 500 ng/mL) of 99.4% and a percent bound ([3]; AAG 1 mg/mL, albumin 40 mg/mL, lurbinectedin 500 ng/mL) of 99.5%. It also gave a percent bound ([3]; AAG 2 mg/mL, albumin 40 mg/mL, lurbinectedin 500 ng/mL) of 99.7%, a percent bound ([3]; AAG 4 mg/mL, albumin 40 mg/mL, lurbinectedin 500 ng/mL) of 99.9% and a percent bound ([3]; condition 2: varying albumin 25-50 mg/mL, AAG 1 mg/mL, lurbinectedin 500 ng/mL) of 99.6%. The percent bound ([3]; condition 3: varying lurbinectedin 50-500 ng/mL, AAG 1 mg/mL, albumin 40 mg/mL) was 99.6%, the hepatic extraction ratio [4] was 0.19 and the “reduction of total plasma clearance” value ([4]; high alpha-1-acid glycoprotein (AAG)) was 28%. The “reduction of total plasma clearance” value ([4]; low albumin) was 20%, the “plasma concentration in a treated patient sample” value [5] was 177 ng/mL and the “non-specific binding (NSB)” value [6] was “very high levels of NSB”. It also gave a fraction unbound at 8 h, 100 ng/mL ([7]; fresh K3-EDTA plasma diluted 1:1 with PBS, diluted fresh plasma (1:1 with PBS)) of 0.00668, a fraction unbound at 8 h, 500 ng/mL ([7]; fresh K3-EDTA plasma from three donors (not frozen), fresh plasma from three donors, day 0 (not frozen)) of 0.00151 to 0.00335 and a fraction unbound at 8 h ([7]; plasma, human plasma, RED (abstract)) of 0.004. It also gave a fraction unbound at 8 h, 100 ng/mL ([7]; previously frozen K3-EDTA plasma (four freeze-thaw cycles), previously frozen plasma (four freeze-thaw cycles)) of 0.00443, a fraction unbound at 8 h, 500 ng/mL ([7]; three donors, day 21 after storage at -80°C ±10°C) of 0.00206 to 0.00319 and a fraction unbound at 8 h, 500 ng/mL ([7]; three donors, day 30 after storage at -80°C ±10°C) of 0.00168 to 0.00266. For the same molecule, the fraction unbound at 8 h, 500 ng/mL ([7]; three donors, day 62 after storage at -80°C ±10°C) was 0.00196 to 0.00286 and the fraction unbound at 8 h, 500 ng/mL ([7]; three donors, day 91 after storage at -80°C ±10°C) was 0.00159 to 0.00213.
